According to patent US6852317B2 (priority 2000, dated 2005):

System: Alternaria

Nc1nc2cccc(-c3ccc(CN4CCS(=O)(=O)CC4)cc3)n2n1 [metabolite]
activity after heating (heating to 80 degrees C. for one hour): not lost
activity after treatment with acid (treated with acid): lost
score against Alternaria after acid treatment (treated with acid, score before treatment 0, 0-5 scale): 5
activity after treatment with base (treated with base): not lost
